Here are results for 9 compounds from US4863942A, “Novel resorcinol ethers and anti-inflammatory and anti-allergic use thereof” (Ciba-Geigy Corporation, priority 1984, dated 1989).

Test [1] has as its system LTD4-induced contractions of the isolated ileum. The test can be described thus: Inhibitory action on LTD4-induced contractions of the guinea-pig ileum. It counts as cell-based, guinea-pigs. Conditions: Cavia porcellus; synthetic LTD4, guinea-pig ileum segments in Tyrode's solution, 38° C. The procedure: (§1) For example, they have an anti-allergic action which is based on a pronounced LTD4 (leucotriene-D4) and PAF (PAF-acetoether) antagonism.
Inhibitory action on LTD4 -induced contractions of the guinea-pig ileum
Contractions, the severity of which is recorded, are induced by synthetic LTD4 (leucotriene-D4, potassium salt) in ileum segments that have been taken from guinea-pigs having a body weight of from 300 to 400 g, fastened in an organ bath in Tyrode's solution (38° C., gassing with 95% O2 and 5% CO2) and charged with […]. The degree of inhibition of these contractions that is attributable to the LTD4 -antagonistic action of the test substance is measured. The concentration of test substance that reduces LTD4 -induced contractions to 50% of the starting value is ascertained, this concentration being termed IC50.

Test [2] deals with LTD4-induced bronchospasms. In words: Bronchoconstriction test in guinea-pigs (in vivo, aerosol), LTD4-induced bronchospasm. Conditions: aerosol treatment, compliance in third minute after LTD4 aerosol. The procedure:
as §1
Bronchoconstriction test in guinea-pigs (in vivo, aerosol)
Male guinea-pigs weighing from 400 to 700 g are anaesthetised intraperitoneally with 1.4 g/kg of urethane, and a polyethylene tube is introduced into the jugular vein. A second polyethylene tube is introduced into the trachea. The pressure in the oesophagus is recorded by means of a tube which is introduced into the oesophagus and which is connected to a Statham pressure transducer. […] The flow is measured by means of this arrangement. […]
Aqueous solutions are each freshly prepared and introduced by means of an on-stream drug vial into the chamber of the spray device. […] The reduction in the compliance in the third minute after the administration of LTD4 is read by comparing the average value of three animals with the average value of three control animals and the percentage inhibition of the compliance is calculated in accordance with the following formula: [formula] If different concentrations of active ingredient are investigated, then the percentage inhibition for each concentration is recorded by entering the log concentration on the abscissa against the percentage inhibition on the ordinate. […]

The target of test [3] is phospholipase A2 obtained from human leucocytes. In words: In vitro test for determining the inhibition of phospholipase A2 obtained from human leucocytes. In kind it is biochemical. To be noted: pH 7, 37°, one hour, 14C-oleic acid labelled E. coli phospholipids. An excerpt:
In vitro test for determining the inhibition of phospholipase A2 obtained from human leucocytes Human neutrophilic polymorphonuclear leucocytes are isolated from "buffy coats" by multistage fractional sedimentation and deep-frozen. Phospholipase A2 is extracted from the cell suspension by homogenisation with the addition of ice-cold 0.36N H2 SO4 in 2M NaCl and the supernatant obtained after centrifugation at 10,000 g is dialysed against sodium acetate buffer pH 4.5. […] The reaction is stopped by the addition of Dole reagent (isopropanol/heptane/1N H2 SO4 40:10:1, v/v) and the ^14 C-oleic acid released selectively by phospholipase A2 is extracted. […] The ^14 C-oleic acid in the eluate is determined radiometrically. In order to ascertain the inhibitory action of test substances on phospholipase A2, these substances are added to the incubation mixture in the form of solutions in water, dimethyl sulphoxide (final concentration in the mixture up to 5% by volume) or ethanol (final concentration in the mixture up to 2.5% by volume). The strength of action of the test substances is expressed by the IC50, that is to say the concentration that brings about a 50% inhibition of the control activity The IC50 is ascertained on a graph by entering the percentage inhibition on the ordinate against the logarithm of the concentration (μM) on the abscissa.

Test [4] deals with phospholipase C obtained from human thrombocytes. In words: In vitro test for determining the inhibition of phospholipase C obtained from human thrombocytes. In kind it is biochemical. The procedure: In vitro test for determining the inhibition of phospholipase C obtained from human thrombocytes
Human thrombocytes are obtained from "buffy coats" by fractional centrifugation and then deep-frozen. Phospholipase C is released by ultrasound treatment of the cell suspension and, after ultracentrifugation (150,000 g, 1 hour) is in soluble form in the supernatant.
In order to determine the enzyme activity, enzyme (20-100 μg protein) is incubated for 5 minutes at 37° in 0.025M tris/malate buffer pH 6 with the addition of 0.2 mM CaCl2 and 0.02 mM radioactively labelled substrate, phosphatidyl- [^14 C]-inositol. The reaction is stopped by extraction by shaking with CHCl3 /CH3 OH 2:1 (v/v). Substrate that has not been consumed is extracted into the organic phase while the reaction product, ^14 C-inositol phosphate, remains in the aqueous phase and can be measured by radiometry of an aliquot.
In order to ascertain the inhibitory action of test substances on phospholipase C, these substances are added to the incubation mixture in the form of solutions in water or dimethyl sulphoxide (final concentration in the mixture up to 5% by volume). The strength of action of the test substances is expressed by the IC50, that is to say the concentration that brings about a 50% inhibition of the control activity. The IC50 is ascertained on a graph by entering the percentage inhibition on the ordinate against the logarithm of the concentration (μM) on the abscissa.

Where two headings read alike, the source gives them in different places.

In the case of `CCCc1c(OCCCOc2ccc(C)c(NC(=O)C(=O)O)c2)ccc(C(C)=O)c1O` [N-{3-[3-(4-acetyl-3-hydroxy-2-n-propylphenoxy)-propoxy]-6-methylphenyl}-oxamic acid], the concentration for half-maximal inhibition (IC50) (commonly the concentration that gives 50% inhibition) in test [1] is 0.015 µM; in test [2], 0.024 % of the aerosol solution. In the case of `CCCc1c(OCCCOc2cccc(NC(=O)C(=O)O)c2C#N)ccc(C(C)=O)c1O` [N-{3-[3-(4-acetyl-3-hydroxy-2-n-propylphenoxy)-propoxy]-2-cyanophenyl}-oxamic acid], the IC50 in test [3] (read-out: IC50) was found to be 30 µM. In the case of `CCCc1c(OCC(O)COc2cccc(NC(=O)C(=O)O)c2)ccc(C(C)=O)c1O` (stereo not drawn) [N-{3-[3-(4-acetyl-3-hydroxy-2-n-propyl-phenoxy)-2-hydroxypropoxy]-phenyl}-oxamic acid, reference compound], the 50% inhibitory concentration (IC50) result in test [3] is “inactive at 100”. `CCCc1c(OCC(O)COc2cccc(NC(=O)C(=O)O)c2C#N)ccc(C(C)=O)c1O` (stereo not drawn) [N-{3-[3-(4-acetyl-3-hydroxy-2-n-propyl-phenoxy)-2-hydroxypropoxy]-2-cyanophenyl}-oxamic acid, reference compound]: the IC50 entry in test [3] is “inactive at 100”; in test [4] (pH 6, 37°, 5 minutes, phosphatidyl-[14C]-inositol), “inactive at 100”. For `CCCc1c(OCCCOc2cccc(NC(=O)c3nnn[nH]3)c2C#N)ccc(C(C)=O)c1O` [N-{3-[3-(4-acetyl-3-hydroxy-2-n-propylphenoxy)-propoxy]-2-cyanophenyl}-1H-tetrazole-5-carboxamide], the IC50 was 20 µM in test [3] (read-out: IC50) and 14 µM in test [4] (pH 6, 37°, 5 minutes, phosphatidyl-[14C]-inositol, read-out: IC50). In the case of `CCCc1c(OCCCOc2cccc(NC(=O)C(=O)O)c2)ccc(C(C)=O)c1O` [N-{3-[3-(4-acetyl-3-hydroxy-2-n-propylphenoxy)-propoxy]-phenyl}-oxamic acid], the half-maximal inhibitory concentration (IC50) in test [3] (read-out: IC50) amounted to 23 µM. For `CCCc1c(OCCCOc2cc(NC(=O)c3nnn[nH]3)c(C)cc2Br)ccc(C(C)=O)c1O` [N-{3-[3-(4-acetyl-3-hydroxy-2-n-propylphenoxy)-propoxy]-4-bromo-6-methylphenyl}-1H-tetrazole-5-carboxamide], the IC50 amounted to 10 µM in test [3] (read-out: IC50) and 0.008 µM in test [1]. As to `CCN(CC)CCCC(C)Nc1c2ccc(Cl)cc2nc2ccc(OC)cc12` (stereo not drawn) [mepacrine, reference compound], the IC50 in test [3] (read-out: IC50) worked out at 1600 µM; in test [4] (mepacrine under the test conditions described, read-out: IC50) it was 20 µM. With `CCCc1c(OCCCOc2cc(NC(=O)C(=O)O)c(C)cc2Br)ccc(C(C)=O)c1O` [N-{3-[3-(4-acetyl-3-hydroxy-2-n-propylphenoxy)-propoxy]-4-bromo-6-methylphenyl}-oxamic acid], the 50% inhibitory concentration (IC50) in test [3] (read-out: IC50) was 15 µM; in test [2], 0.033 % of the aerosol solution.
